A word on the IC50: it is the point on the concentration scale where inhibition reaches its midpoint.

IC50 data for two compounds are collected here from patent US8399459B2, “1,4 oxazines as BACE1 and/or BACE2 inhibitors” (Hoffmann-La Roche Inc., priority 2011, dated 2013).

The target of test [1] is T1, CYP2D6 (Homo sapiens, UniProt P10635).
T1 construct: 0.2 mg/ml pooled human liver microsomes; from tissue; host or cells: pooled human liver microsomes
Kind of test: CYP inhibition assay, human liver microsomes, dextromethorphan O-demethylase. In kind it is in vitro ADME. The note with it: pooled human liver microsomes, read-out: CYP IC50 2D6. The protocol:
(§1) Inhibition of cytochromes P450 (CYPs) 2C9, 2D6 and 3A4 was assessed using human liver microsomes and CYP-selective substrate metabolism reactions. 50 μl incubations were made up containing (finally) 0.2 mg/ml pooled human liver microsomes, 5 μM substrate (diclofenac for CYP2C9 [4′hydroxylase], dextromethorphan for CYP2D6 [O-demethylase] or midazolam for CYP3A4 [1′hydroxylase]), 0.25 μL DMSO containing test inhibitor and NADPH regenerating system. Test inhibitor concentrations of 50, 16.7, 5.6, 1.9, 0.6 and 0.2 μM were assessed in singlicate. Incubations were prewarmed to 37° C. for 10 minutes before initiation by addition of NADPH regenerating system. Incubations were quenched after 5 minutes (20 minutes for dextromethorphan) by addition of 50 μl cold acetonitrile containing 20 ng/ml 4-OH-diclofenac-13C6, 20 ng/mL dextrorphan-D3 and 20 ng/mL 1-OH-midazolam-D4. Quenched incubates were stored at −20° C. for at least 1 hour before centrifugation (20,000×g, 20 minutes). Supernatants were removed and diluted 1:1 with water prior to analysis using a RapidFire sample injector system and API4000 mass spectrometer. Peak areas for substrate, metabolite and stable-labelled metabolite standard were determined using MS/MS. The peak area ratios between the metabolite generated by the enzymatic reaction and the internal standard were used in subsequent calculations. The percentage of (DMSO) control activity was calculated for each incubate and IC50 values estimated by non-linear regression. Sulfaphenazole, quinidine or ketoconazole were tested in each CYP2C9, CYP2D6 or CYP3A4 inhibition experiment, respectively, to ensure assay sensitivity and reproducibility. (Validated assays for human cytochrome P450 activities, R. L. Walsky and R. S. Obach, Drug Metabolism and Disposition 32: 647-660, 2004. and S. Fowler and H. Zhang, The AAPS Journal, Vol. 10, No. 2, 410-424, 2008.)
(Liver microsomes are vesicles of endoplasmic reticulum, rich in cytochrome P450 enzymes.)

For test [2], the target named is T2, cathepsin D (from human liver) (Homo sapiens, UniProt P07339).
T2 construct: cathepsin D (from human liver, Calbiochem); purchased Calbiochem; host or cells: purified from human liver
T2 sequence (P07339 65-162 limits assumed): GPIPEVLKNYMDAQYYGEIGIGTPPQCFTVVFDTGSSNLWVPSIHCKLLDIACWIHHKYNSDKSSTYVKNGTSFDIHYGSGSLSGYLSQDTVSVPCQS
T2 sequence (P07339 169-412 limits assumed): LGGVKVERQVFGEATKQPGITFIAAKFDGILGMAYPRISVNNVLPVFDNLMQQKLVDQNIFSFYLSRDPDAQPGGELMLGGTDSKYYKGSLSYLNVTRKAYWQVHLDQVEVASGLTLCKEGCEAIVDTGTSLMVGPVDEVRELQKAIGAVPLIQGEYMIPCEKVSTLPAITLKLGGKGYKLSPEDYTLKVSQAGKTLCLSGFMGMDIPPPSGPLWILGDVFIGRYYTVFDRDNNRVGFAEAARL
Kind of test: Cathepsin D fluorescent substrate kinetic assay. In kind it is biochemical. As to conditions: pH 5.5, substrate […]-MR121. The text has this:
Cathepsin D and Cathepsin E Fluorescent Substrate Kinetic Assays
The MR121 fluorescence assays described below are based on the fact that MR121 forms a non-fluorescent ground state complex with tryptophan. In solution this formation occurs at millimolar concentrations of tryptophan. The mechanism can be used to design a generic biochemical assay for proteases. A substrate peptide is labeled at the N-terminus with tryptophan and at the C-terminus with the fluorophore MR121 (for cathepsin D the 10 amino acid peptide […]-MR121 was used; for cathepsin E, MR121-[…] was used). In absence of protease activity, the substrates remain intact and the MR121 fluorescence is reduced by the high local Trp-concentration. If the substrates are cleaved by the enzymes the MR121 fluorescence is recovered.
The fluorescent substrate cathepsin D and cathepsin E kinetic assays were performed at room temperature in 384-well microtiter plates (black with clear flat bottom, non binding surface plates from Corning) in a final volume of 51 μl. […] The enzymatic reaction was followed in a plate: vision reader (Perkin Elmer) (excitation wavelength: 630 nm; emission: 695 nm) for at least 30 minutes in a kinetic measurement detecting an increase of MR121 fluorescence during the reaction time. […]

For test [3], the target named is T3, CYP3A4 (Homo sapiens, UniProt P08684).
T3 construct: 0.2 mg/ml pooled human liver microsomes; from tissue; host or cells: pooled human liver microsomes
T3 sequence (P08684 whole entry): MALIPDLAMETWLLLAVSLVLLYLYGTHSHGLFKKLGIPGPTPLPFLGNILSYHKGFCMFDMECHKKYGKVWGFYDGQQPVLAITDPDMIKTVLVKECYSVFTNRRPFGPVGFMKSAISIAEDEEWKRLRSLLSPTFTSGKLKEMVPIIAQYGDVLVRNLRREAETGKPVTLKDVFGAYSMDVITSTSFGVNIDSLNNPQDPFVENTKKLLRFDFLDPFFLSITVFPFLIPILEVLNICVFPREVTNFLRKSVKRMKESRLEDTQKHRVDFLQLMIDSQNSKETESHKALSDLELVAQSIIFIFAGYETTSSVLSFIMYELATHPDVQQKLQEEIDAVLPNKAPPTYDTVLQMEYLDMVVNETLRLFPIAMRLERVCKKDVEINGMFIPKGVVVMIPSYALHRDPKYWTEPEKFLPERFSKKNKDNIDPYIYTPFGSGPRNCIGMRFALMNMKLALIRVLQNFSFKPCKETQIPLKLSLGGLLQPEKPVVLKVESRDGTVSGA
Kind of test: CYP inhibition assay, human liver microsomes, midazolam 1′hydroxylase. In kind it is in vitro ADME. The note with it: pooled human liver microsomes, read-out: CYP IC50 3A4. The protocol:
as §1

For test [4], the target named is T4, BACE1 (Homo sapiens, UniProt P56817).
T4 construct: Human HEK293 cells which are stably transfected with a vector expressing a cDNA of the human APP wt gene (APP695); endogenous in cells; host or cells: HEK293 (human), stably transfected with human APP695 wt only
T4 sequence (P56817 46-501): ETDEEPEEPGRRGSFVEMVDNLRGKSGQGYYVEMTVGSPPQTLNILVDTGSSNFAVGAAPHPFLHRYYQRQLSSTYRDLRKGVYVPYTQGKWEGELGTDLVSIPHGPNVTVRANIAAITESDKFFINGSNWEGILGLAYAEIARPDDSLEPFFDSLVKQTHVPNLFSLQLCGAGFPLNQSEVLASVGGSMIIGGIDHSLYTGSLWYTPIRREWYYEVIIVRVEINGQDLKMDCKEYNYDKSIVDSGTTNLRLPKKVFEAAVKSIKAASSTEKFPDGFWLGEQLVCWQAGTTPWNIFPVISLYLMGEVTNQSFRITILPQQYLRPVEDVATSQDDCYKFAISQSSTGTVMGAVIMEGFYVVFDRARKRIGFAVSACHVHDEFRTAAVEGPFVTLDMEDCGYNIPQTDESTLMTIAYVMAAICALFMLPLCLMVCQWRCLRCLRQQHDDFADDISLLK
Put plainly: Cellular Aβ-lowering assay (Aβ40 ELISA, HEK293 cells expressing human APP695). Format: cell-based. As to conditions: HEK293 cells stably expressing human APP695; Aβ40 in supernatant after 18-20 hrs. The protocol:
Cellular Aβ-Lowering Assay:
Human HEK293 cells which are stably transfected with a vector expressing a cDNA of the human APP wt gene (APP695) were used to assess the potency of the compounds in a cellular assay. The cells were seeded in 96-well microtiter plates in cell culture medium (Iscove, plus 10% (v/v) fetal bovine serum, glutamine, penicillin/streptomycin) to about 80% confluence and the compounds were added at a 10× concentration in 1/10 volume of medium without FCS containing 8% DMSO (final concentration of DMSO was kept at 0.8% v/v). After 18-20 hrs incubation at 37° C. and 5% CO2 in a humidified incubator the culture supernatant was harvested for the determination of Aβ40 concentrations. 96well ELISA plates (e.g., Nunc MaxiSorb) were coated with monoclonal antibody which specifically recognize the C-terminal end of Aβ40 (Brockhaus et al., NeuroReport 9, 1481-1486; 1998). After blocking of non-specific binding sites with e.g. 1% BSA and washing, the culture supernatants were added in suitable dilutions together with a horseradish peroxidase-coupled Aβ detection antibody (e.g., antibody 4G8, Senetek, Maryland Heights, Mo.) and incubated for 5 to 7 hrs. Subsequently the wells of the microtiter plate were washed extensively with Tris-buffered saline containing 0.05% Tween 20 and the assay was developed with tetramethylbenzidine/H2O2 in citric acid buffer. After stopping the reaction with one volume 1 N H2SO4 the reaction was measured in an ELISA reader at 450 nm wavelength. The concentrations of Aβ in the culture supernatants were calculated from a standard curve obtained with known amounts of pure Aβ peptide.
A general note: An ELISA detects its analyte on a solid surface through an enzyme-linked reagent.

The target in test [5] is T5, CYP2C9 (Homo sapiens, UniProt P11712).
T5 construct: 0.2 mg/ml pooled human liver microsomes; from tissue; host or cells: pooled human liver microsomes
T5 sequence (P11712 whole entry): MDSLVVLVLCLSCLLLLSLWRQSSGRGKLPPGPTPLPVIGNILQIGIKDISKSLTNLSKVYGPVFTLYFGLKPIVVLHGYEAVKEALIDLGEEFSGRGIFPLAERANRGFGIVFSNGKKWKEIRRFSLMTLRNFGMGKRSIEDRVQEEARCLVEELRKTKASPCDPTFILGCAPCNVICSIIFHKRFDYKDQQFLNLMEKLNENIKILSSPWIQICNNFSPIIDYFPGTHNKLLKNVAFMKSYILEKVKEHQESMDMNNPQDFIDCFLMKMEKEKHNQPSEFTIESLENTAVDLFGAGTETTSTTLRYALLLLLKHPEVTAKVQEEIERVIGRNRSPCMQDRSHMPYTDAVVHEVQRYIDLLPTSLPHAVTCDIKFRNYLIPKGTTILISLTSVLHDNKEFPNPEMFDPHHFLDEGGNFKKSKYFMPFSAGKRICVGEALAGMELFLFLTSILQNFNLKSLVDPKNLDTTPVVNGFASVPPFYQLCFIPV
Put plainly: CYP inhibition assay, human liver microsomes, diclofenac 4′hydroxylase. As to conditions: pooled human liver microsomes, read-out: CYP IC50 2C9. In kind it is in vitro ADME. The protocol: as §1

T1 sequence (P10635 whole entry): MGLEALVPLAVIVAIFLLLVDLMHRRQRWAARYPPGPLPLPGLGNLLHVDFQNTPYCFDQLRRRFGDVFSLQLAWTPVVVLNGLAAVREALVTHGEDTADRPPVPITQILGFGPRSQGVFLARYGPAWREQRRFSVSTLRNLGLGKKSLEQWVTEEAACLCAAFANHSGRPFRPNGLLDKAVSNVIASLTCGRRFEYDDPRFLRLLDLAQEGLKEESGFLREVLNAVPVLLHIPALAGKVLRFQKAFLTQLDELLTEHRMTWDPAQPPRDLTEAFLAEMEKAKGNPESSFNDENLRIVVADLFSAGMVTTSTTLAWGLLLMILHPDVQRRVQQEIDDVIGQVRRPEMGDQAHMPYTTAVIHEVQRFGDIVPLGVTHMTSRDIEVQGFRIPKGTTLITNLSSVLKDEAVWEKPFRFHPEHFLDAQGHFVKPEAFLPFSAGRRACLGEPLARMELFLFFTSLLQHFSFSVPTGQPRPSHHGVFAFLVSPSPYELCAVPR

Regarding `CC1(c2cccc(-c3cc(Cl)cc(Cl)c3)c2)COCC(N)=N1` (stereo not shown) [Example 32, 5-(3′,5′-Dichloro-biphenyl-3-yl)-5-methyl-5,6-dihydro-2H-[1,4]oxazin-3-ylamine], the 50% inhibitory concentration (IC50) in test [1] was over 50 µM; in test [2] it was 2.8 µM; in test [3], over 50 µM; in test [4], 1.53 µM; in test [5] it was 3.7 µM.
On to `CC1(c2cc(-c3cncnc3)ccc2F)COCC(N)=N1` (stereo not shown) [Example 36, 5-(2-Fluoro-5-pyrimidin-5-yl-phenyl)-5-methyl-5,6-dihydro-2H-[1,4]oxazin-3-ylamine], for which the IC50 is 41 µM in test [1]; 34 µM in test [2]; over 50 µM in test [3]; 0.98 µM in test [4]; over 50 µM in test [5].
